From publication PMC5444710, “Enhancement of radiosensitivity by the novel anticancer quinolone derivative vosaroxin in preclinical glioblastoma models” (Oncotarget, 2017)

Tests used:
U138 glioma cell line = assay: Inhibition of proliferation (cell viability); assay type: cell-based; settings: Homo sapiens
Description: (§1) Cells were seeded at a density of 2 × 10^4 cells/mL in 24-well plates. Cells were […] to attach and grow in 5% fetal bovine serum in DMEM for 24 hours. Cells were treated with different doses of radiation or temozolomide and then maintained in the appropriate culture conditions. At the conclusion of the treatment period, cells were trypsinized and resuspended in 1.0 mL of saline; viable cells were counted using the NucleoCounter^TM NC-100 (Chemotec, […], Denmark). All experiments were conducted in triplicate. IC50 values were calculated using GraFit (Erithacus Software Limited, Staines, UK).

U118 glioma cell line = assay: Inhibition of proliferation (cell viability); assay type: cell-based; settings: Homo sapiens
Description: as §1

U251 glioma cell line = assay: Inhibition of proliferation (cell viability); assay type: cell-based; settings: Homo sapiens, U-251
Description: as §1

SW1783 glioma cell line = assay: Inhibition of proliferation (cell viability); assay type: cell-based; settings: Homo sapiens
Description: as §1

SF268 glioma cell line = assay: Inhibition of proliferation (cell viability); assay type: cell-based; settings: Homo sapiens, SF-268
Description: as §1

D54 glioma cell line = assay: Inhibition of proliferation (cell viability); assay type: cell-based; settings: Homo sapiens
Description: as §1

LN229 glioma cell line = assay: Inhibition of proliferation (cell viability); assay type: cell-based; settings: Homo sapiens, LN-229
Description: as §1

LN18 glioma cell line = assay: Inhibition of proliferation (cell viability); assay type: cell-based; settings: Homo sapiens, LN-18
Description: as §1

T98G glioma cell line = assay: Inhibition of proliferation (cell viability); assay type: cell-based; settings: Homo sapiens
Description: as §1

U87MG glioma cell line = assay: Inhibition of proliferation (cell viability); assay type: cell-based; settings: Homo sapiens, U-87 MG
Description: as §1

U373 glioma cell line = assay: Inhibition of proliferation (cell viability); assay type: cell-based; settings: Homo sapiens, U373 MG
Description: as §1

A172 glioma cell line = assay: Inhibition of proliferation (cell viability); assay type: cell-based; settings: Homo sapiens, A 172
Description: as §1

SNB19 glioma cell line = assay: Inhibition of proliferation (cell viability); assay type: cell-based; settings: Homo sapiens, SNB-19
Description: as §1

caspase-3 = assay: Caspase-3 activity (ELISA); assay type: cell-based, human; settings: addition of vosaroxin (IC20) to RT
Description: (§2) After appropriate treatments, tumor cell cultures and tissues were harvested for analysis of cytokine expression. Cell pellets were washed with PBS and lysed with RIPA buffer. Cell lysates and conditioned media were assayed by ELISA to measure (i) active human caspase-3 (CBA045, Merck Chemicals Ltd., Nottingham, UK), (ii) beclin-1 (E98557Hu, USCN Life Sciences, Houston, TX, USA), and (iii) DNA damage (EpiQuik in situ DNA Damage Assay Kit, Epigentek, Farmingdale, NY, USA).

beclin-1 = assay: Beclin-1 expression (Western blot and ELISA); assay type: cell-based, human; settings: after vosaroxin treatment at IC20; U87MG, U251, T98G
Description: Cells grown in 90 mm diameter Petri dishes were treated and at various timepoints were washed with cold phosphate-buffered saline (PBS) and immediately lysed with 1 mL radioimmunoprecipitation assay (RIPA) buffer containing protease and phosphatase inhibitor cocktail. Total lysates were electrophoresed in SDS-PAGE (7%), and separated proteins transferred to nitrocellulose and probed with the appropriate antibodies using the conditions recommended by the suppliers. Protein levels in total extracts were normalized to actin. After appropriate treatments, tumor cell cultures and tissues were harvested for analysis of cytokine expression. Cell pellets were washed with PBS and lysed with RIPA buffer. Cell lysates and conditioned media were assayed by ELISA to measure (i) active human caspase-3 (CBA045, Merck Chemicals Ltd., Nottingham, UK), (ii) beclin-1 (E98557Hu, USCN Life Sciences, Houston, TX, USA), and (iii) DNA damage (EpiQuik in situ DNA Damage Assay Kit, Epigentek, Farmingdale, NY, USA).

T98G xenografts = assay: Cytokine expression in xenograft tissue extracts (ELISA); assay type: in vivo, female CD1-nu/nu mice; settings: T98G xenograft tissue extract
Description: as §2, with “USA). Tumor extracts were analyzed for the presence of:” for “USA).”
(§3) • MMP-2 (KHC3081) • TNF-α (KHC3011, Life Technologies Italia, Monza, Italy) • CXCR4 (Cyto Glow CXCR4 [pSer339], cell-based ELISA, Assay Biotech, Sunnyvale, CA, USA) • Human Fas ligand (ELH-FASL, RayBiotech, Norcross, GA, USA) • IL-6 (orb50052) and survivin (orb50135) (Biorbyt) • TGF-β1 (Quantikine ELISA Kit, DB100B, R&D Systems, Minneapolis, MN, USA) • SDF-1α (Human CXCL12/SDF-1α Quantikine ELISA Kit, DSA00, R&D Systems) • Mouse IL-10 DuoSet ELISA DY417 (R&D Systems Minneapolis, MN, USA) • Mouse NOS2 / iNOS ELISA Kit (Sandwich ELISA) - LS-F12166 (LifeSpan Biosciences, Inc, Seattle, WA, USA) • Mouse ARG1 / Arginase-1 ELISA Kit (Sandwich ELISA) - LS-F10883 (LifeSpan Biosciences, Inc, Seattle, WA, USA)
(§4) All determinations were performed in triplicate, according to manufacturers’ instructions. Data are presented as mean ± SE. Cytokine secretion determined by ELISA was normalized to total protein concentration in tissue lysates.

U87MG xenografts = assay: as above; assay type: in vivo, female CD1-nu/nu mice; settings: U87MG xenograft tissue extract
Description: as §2, with “USA). Tumor extracts were analyzed for the presence of:” for “USA).”
as §3, §4

U251 xenografts = assay: as above; assay type: in vivo, female CD1-nu/nu mice; settings: U251 xenograft tissue extract
Description: as §2, with “USA). Tumor extracts were analyzed for the presence of:” for “USA).”
as §3, §4

**Q.** For `CN[C@H]1CN(c2ccc3c(=O)c(C(=O)O)cn(-c4nccs4)c3n2)C[C@@H]1OC` [vosaroxin], which IC50 (U138 glioma cell line) is on record?
**A.** 65.8 ± 14.6 nM

**Q.** What about the IC50 (U118 glioma cell line) of the same compound?
**A.** 88.5 ± 16.7 nM

**Q.** And the IC20 (U251 glioma cell line)?
**A.** 15 nM

**Q.** What about the IC50 (U251 glioma cell line) of the same compound?
**A.** 18.6 ± 2.4 nM

**Q.** What about the IC50 (SW1783 glioma cell line) of the same compound?
**A.** 260 ± 9.8 nM

**Q.** What about the IC50 (SF268 glioma cell line) of the same compound?
**A.** 50.3 ± 12 nM

**Q.** And the IC50 (D54 glioma cell line)?
**A.** 190 ± 25.4 nM

**Q.** What about the IC50 (LN229 glioma cell line) of the same compound?
**A.** 12.8 ± 2.3 nM

**Q.** And the IC50 (LN18 glioma cell line)?
**A.** 90 ± 12.5 nM

**Q.** What about the IC20 (T98G glioma cell line) of the same compound?
**A.** 45 nM

**Q.** What about the IC50 (T98G glioma cell line) of the same compound?
**A.** 64.5 ± 11 nM

**Q.** And the IC20 (U87MG glioma cell line)?
**A.** 65 nM

**Q.** And the IC50 (U87MG glioma cell line)?
**A.** 141 ± 84.7 nM

**Q.** And the IC50 (U373 glioma cell line)?
**A.** 78.4 ± 9.7 nM

**Q.** What about the IC50 (A172 glioma cell line) of the same compound?
**A.** 125 ± 89.4 nM

**Q.** What about the IC50 (SNB19 glioma cell line) of the same compound?
**A.** 35.5 ± 7 nM

**Q.** And the caspase-3 activity (caspase-3)?
**A.** increased

**Q.** What about the “RT-induced levels of beclin-1” value (beclin-1) of the same compound?
**A.** significantly reduced

**Q.** What about the “Human IL-6” value (T98G xenografts) of the same compound?
**A.** 30 ± 3 pg/mg tissue

**Q.** And the “Human TGF-β1” value (T98G xenografts)?
**A.** 27 ± 3

**Q.** And the “Human TNF-α” value (T98G xenografts)?
**A.** 3 ± 1 pg/mg tissue

**Q.** And the “Human and mouse IL-8” value (T98G xenografts)?
**A.** 440 ± 30 pg/mg tissue

**Q.** And the “Mouse IL-1β” value (T98G xenografts)?
**A.** 27 ± 4 pg/mg tissue

**Q.** And the “Mouse IL-10” value (T98G xenografts)?
**A.** < 1.0

**Q.** What about the “Mouse SDF-1α” value (T98G xenografts) of the same compound?
**A.** 12 ± 4

**Q.** And the “Human IL-6” value (U87MG xenografts)?
**A.** 78 ± 13 pg/mg tissue

**Q.** And the “Human TGF-β1” value (U87MG xenografts)?
**A.** 47 ± 8

**Q.** And the “Human TNF-α” value (U87MG xenografts)?
**A.** 17 ± 3 pg/mg tissue

**Q.** And the “Human and mouse IL-8” value (U87MG xenografts)?
**A.** 715 ± 37 pg/mg tissue

**Q.** What about the “Mouse IL-1β” value (U87MG xenografts) of the same compound?
**A.** 85 ± 10 pg/mg tissue

**Q.** What about the “Mouse IL-10” value (U87MG xenografts) of the same compound?
**A.** 6.2 ± 0.5

**Q.** And the “Mouse SDF-1α” value (U87MG xenografts)?
**A.** 18 ± 3

**Q.** And the “Human IL-6” value (U251 xenografts)?
**A.** 33 ± 8 pg/mg tissue

**Q.** And the “Human TGF-β1” value (U251 xenografts)?
**A.** 35 ± 6

**Q.** And the “Human TNF-α” value (U251 xenografts)?
**A.** 7 ± 1 pg/mg tissue

**Q.** And the “Human and mouse IL-8” value (U251 xenografts)?
**A.** 275 ± 35 pg/mg tissue

**Q.** What about the “Mouse IL-1β” value (U251 xenografts) of the same compound?
**A.** 44 ± 5 pg/mg tissue

**Q.** What about the “Mouse IL-10” value (U251 xenografts) of the same compound?
**A.** 5.2 ± 0.6

**Q.** What about the “Mouse SDF-1α” value (U251 xenografts) of the same compound?
**A.** 32 ± 3
